PMC6522510 (Nature Communications, 2019)
Like-named read-outs stand apart in the source and are kept apart here.

Key:
CMS = experiment: Secondary dose-response HTS, Cell Titer Glo; assay type: cell-based, human; details: for EC50: read-out: average effective concentration, CMS
MOLM-13 = experiment: Secondary dose-response HTS, Cell Titer Glo; assay type: cell-based, human; details: secondary high-throughput screen, MOLM-13; for EC50: Homo sapiens, read-out: average effective concentration, MOLM-13
ML2 = experiment: Secondary dose-response HTS, Cell Titer Glo; assay type: cell-based, human; details: secondary high-throughput screen, ML-2; for EC50: read-out: average effective concentration, ML-2
CHRF288-11 = experiment: Secondary dose-response HTS, Cell Titer Glo; assay type: cell-based, human; details: secondary high-throughput screen, CHRF288-11; for EC50: read-out: average effective concentration, CHRF288-11
CMK = experiment: Secondary dose-response HTS, Cell Titer Glo; assay type: cell-based, human; details: CMK; for EC50: read-out: average effective concentration, CMK
U937 = experiment: Secondary dose-response HTS, Cell Titer Glo; assay type: cell-based, human; details: secondary high-throughput screen, U937; for EC50: read-out: average effective concentration, U937
MV4-11 [1] = experiment: Secondary dose-response HTS, Cell Titer Glo; assay type: cell-based, human; details: secondary high-throughput screen, MV4-11; for EC50: Homo sapiens, read-out: average effective concentration, MV4-11
M07e = experiment: Secondary dose-response HTS, Cell Titer Glo; assay type: cell-based, human; details: secondary high-throughput screen; for EC50: Homo sapiens, M-07e, read-out: average effective concentration, M07e
MV4-11 [2] = experiment: cells; parameters: species or system AML cell lines (8); Secondary HTS, 10-point dose-response in triplicate, Cell Titer Glo viability, four-parameter fit EC50; details: Homo sapiens, MV4-11, 72 h, read-out: MV4-11
[3] = secondary high-throughput screen, CMS
[4] = secondary high-throughput screen
[5] = Homo sapiens, HTS, secondary high-throughput screen, CMS
[6] = Homo sapiens, secondary high-throughput screen

Compound	average effective concentration, CMS (CMS; [3])	average effective concentration, MOLM-13 (MOLM-13)	average effective concentration, CHRF288-11 (CHRF288-11)	average effective concentration, CMK (CMK; [4])	average effective concentration, U937 (U937)	average effective concentration, MV4-11 (MV4-11 [1])	average effective concentration, M07e (M07e; M07e)	average effective concentration, ML-2 (ML2)	EC50 (MOLM-13) [nM]	EC50 (ML2; Homo sapiens) [nM]	EC50 (CHRF288-11; Homo sapiens, HTS) [nM]	EC50 (U937; Homo sapiens, U-937) [nM]	EC50 (M07e; M07e) [nM]	further results
C[n+]1c2cc(N)ccc2cc2ccc(N)cc21	Inactive	Inactive	Inactive	Inactive	Inactive	Inactive	Inactive	–	–	–	–	–	–	EC50 (ML2): 7700 nM
NC(=O)C1CCCc2c1[nH]c1ccc(Cl)cc21 (stereo not drawn)	Inactive	Inactive	Inactive	Inactive	Inactive	Inactive	Inactive	Inactive	–	–	–	–	–	–
1-NA-PP1 [Compound 1-NA-PP1]	Inactive	Inactive	Inactive	–	Inactive	Inactive	–	Inactive	–	–	–	–	–	EC50 (CMK; [4]): 2200 nM; average effective concentration, M07e (M07e; […]): Inactive
CN(N=O)C(=O)N[C@H]1C(O)O[C@H](CO)[C@@H](O)[C@@H]1O (mixture of isomers) [STREPTOZOSIN]	Inactive	Inactive	Inactive	Inactive	Inactive	Inactive	Inactive	Inactive	–	–	–	–	–	–
N[C@@H]1C[C@H]1c1ccccc1 (racemic) [TRANYLCYPROMINE]	Inactive	Inactive	Inactive	–	Inactive	Inactive	Inactive	Inactive	–	–	–	–	–	–
CC1CCCCCC(=O)c2c(O)cc(O)cc2CC(=O)O1 (single isomer, unassigned; (-)) [(-)-CURVULARIN]	–	Inactive	–	–	–	Inactive	–	–	–	–	–	–	–	EC50 (CMS; [3]): 320 nM; EC50 (CHRF288-11): 4700 nM; EC50 (CMK; [4]): 1500 nM; EC50 (U937): 820 nM; average effective concentration, M07e (M07e; […]): Inactive
[NH4+].[NH4+].[SH-].[SH-].[S]=[Mo]=[S] [AMMONIUM TETRATHIOMOLYBDATE]	Inactive	Inactive	Inactive	–	Inactive	Inactive	Inactive	Inactive	–	–	–	–	–	–
O=[As]O[As]=O (stereo not drawn) [ARSENIC TRIOXIDE]	Inactive	Inactive	Inactive	–	Inactive	Inactive	–	Inactive	–	–	–	–	–	average effective concentration, M07e (M07e; […]): Inactive
N[C@@H]1CCCN(c2c(/C=C3\SC(=O)NC3=O)cccc2-c2ccccc2)C1 [AZD1208]	Inactive	Inactive	–	Inactive	Inactive	Inactive	Inactive	Inactive	–	–	–	–	–	–
COc1cc2nc(N3CCCN(C)CC3)nc(NC3CCN(Cc4ccccc4)CC3)c2cc1OC [BIX 01294]	–	–	–	–	–	–	–	–	2500	3600	4400	2000	> 10000	EC50 (CMS; [5]): > 10000 nM; EC50 (MV4-11 [1]): 3000 nM
C#Cc1cccc(Nc2ncnc3cc(OC)c(OCCCCCCC(=O)NO)cc23)c1 [CUDC-101]	–	–	–	–	–	–	–	–	5600	83	600	140	190	EC50 (CMS; Homo sapiens, HTS): 780 nM; EC50 (CMK; Homo sapiens): 73 nM; EC50 (MV4-11 [2]): > 10000 nM
N#CCNC(=O)c1ccc(-c2ccnc(Nc3ccc(N4CCOCC4)cc3)n2)cc1 [CYT-387]	–	–	–	–	–	–	–	–	1200	> 10000	3800	7600	270	EC50 (CMS; Homo sapiens, HTS): 340 nM; EC50 (CMK; Homo sapiens): 1800 nM; EC50 (MV4-11 [2]): > 10000 nM
Nc1ncnc2c1nc(Cl)n2[C@@H]1O[C@H](CO)[C@@H](O)[C@H]1O [Compound 8-CHLOROADENOSINE]	–	–	–	–	–	–	–	–	2200	2800	1200	1000	1	EC50 (CMS; Homo sapiens, HTS): 4400 nM; EC50 (MV4-11 [1]): 250 nM
NC1CC1c1cc(F)cc(F)c1OCc1ccccc1 (stereo not drawn) [Compound S2101]	Inactive	Inactive	Inactive	–	Inactive	Inactive	Inactive	Inactive	–	–	–	–	–	–
OCCN1CCN(CCCN2c3ccccc3Sc3ccc(C(F)(F)F)cc32)CC1 [FLUFENAZINE]	Inactive	Inactive	Inactive	Inactive	Inactive	Inactive	Inactive	–	–	–	–	–	–	–
CSCC[C@@H](NC(=O)c1ccc(CNCc2cnc[nH]2)cc1-c1ccccc1C)C(=O)OCc1ccccc1 [FTI-2628]	Inactive	Inactive	Inactive	Inactive	–	Inactive	Inactive	Inactive	–	–	–	–	–	–
CSCC[C@H](NC(=O)c1ccc(NC(=O)[C@@H](N)CS)cc1)C(=O)O [H-CYS-4-ABZ-MET-OH]	Inactive	Inactive	Inactive	Inactive	–	Inactive	Inactive	Inactive	–	–	–	–	–	–
O=C(O)c1ccc(O)c2ncccc12 [IOX 1]	Inactive	Inactive	Inactive	–	Inactive	Inactive	Inactive	Inactive	–	–	–	–	–	–
C1=C/COCc2cc(ccc2OCCN2CCCC2)Nc2nccc(n2)-c2cccc(c2)COC/1 [PACRITINIB]	–	–	–	–	–	–	–	–	310	130	2400	280	6700	EC50 (CMS; Homo sapiens, HTS): 2000 nM; EC50 (CMK; Homo sapiens): 5000 nM; EC50 (MV4-11 [2]): > 10000 nM
CN(C)Cc1ccc(S(=O)(=O)n2ccc(/C=C/C(=O)NO)c2)cc1 [RESMINOSTAT]	–	–	–	–	–	–	–	–	2000	5000	4700	3500	1100	EC50 (CMS; [5]): 3100 nM; EC50 (CMK; [6]): 1700 nM; EC50 (MV4-11 [2]): > 10000 nM
Nc1cc(F)ccc1NC(=O)/C=C/c1cnn(C/C=C/c2ccccc2)c1 [RGFP966]	–	–	–	–	–	–	–	–	> 10000	> 10000	7300	> 10000	–	EC50 (CMS; [5]): 9300 nM; EC50 (CMK; [6]): 6000 nM; EC50 (M07e; […]): 10000 nM; EC50 (MV4-11 [2]): > 10000 nM
Fc1ccc(CNc2ncnc3ccc(F)cc23)cc1 [SPAUTIN-1]	Inactive	Inactive	Inactive	Inactive	–	Inactive	–	Inactive	–	–	–	–	–	average effective concentration, M07e (M07e; […]): Inactive
CC(=O)Nc1ccc(C(=O)Nc2ccccc2N)cc1 [TACEDINALINE]	–	–	–	–	–	–	–	–	2200	> 10000	> 10000	> 10000	4100	EC50 (CMS; [5]): 9000 nM; EC50 (CMK; [6]): 6800 nM; EC50 (MV4-11 [2]): > 10000 nM
